According to patent publication US6630497B2, “1-phenyl imidazol-2-one biphenylmethyl compounds for treatment of circulatory disorders” (G.D. Searle & Co, priority 1993, dated 2003):

Columns and labels:
[1] = molecular target: smooth muscle angiotensin II receptor; experiment: Assay A: Angiotensin II Binding Activity (125I-AII displacement, rat uterine membrane preparation); conditions: 50% displacement of specifically bound 125I-AII, rat uterine membranes, 25° C., 60 min
Method: Compounds of the invention were tested for ability to bind to the smooth muscle angiotensin II receptor using a rat uterine membrane preparation. […] Other chemicals were obtained from Sigma Chemical Co. This assay was carried out according to the method of Douglas et al [Endocrinology, 106, 120-124 (1980)]. Rat uterine membranes were prepared from fresh tissue. All procedures were carried out at 4° C. Uteri were stripped of fat and homogenized in phosphate-buffered saline at pH 7.4 containing 5 mM EDTA. The homogenate was centrifuged at 1500×g for 20 min., and the supernatant was recentrifuged at 100,000×g for 60 min. The pellet was resuspended in buffer consisting of 2 mM EDTA and 50 mM Tris-HCl (pH 7.5) to a final protein concentration of 4 mg/ml. […] The reaction was initiated by the addition of membrane protein and the mixture was incubated at 25° C. for 60 min. The incubation was terminated with ice-cold 50 mM Tris-HCl (pH 7.5) and the mixture was filtered to separate membrane-bound labelled peptide from the free ligand. The incubation tube and filter were washed with ice-cold buffer. Filters were assayed for radioactivity in a Micromedic gamma counter. Nonspecific binding was defined as binding in the presence of 10 μM of unlabelled AII. Specific binding was calculated as total binding minus nonspecific binding.
Binding data were analyzed by a nonlinear least-squares curve fitting program.

rabbit aortic rings = experiment: Assay B: In Vitro Vascular Smooth Muscle Response for AII; assay type: cell-based; set-up: key: NC = Non-competitive Antagonist; conditions: AII contraction
Method: The compounds of the invention were tested for antagonist activity in rabbit aortic rings. Male New Zealand white rabbits (2-2.5 kg) were sacrificed using an overdose of pentobarbital and exsanguinated via the carotid arteries. The thoracic aorta was removed, cleaned of adherent fat and connective tissue and then cut into 3-mm ring segments. The endothelium was removed from the rings by gently sliding a rolled-up piece of filter paper into the vessel lumen. The rings were then mounted in a water-jacketed tissue bath, maintained at 37° C., between moveable and fixed ends of a stainless steel wire with the moveable end attached to an FT03 Grass transducer coupled to a Model 7D Grass Polygraph for recording isometric force responses. The bath was filled with 20 ml of oxygenated (95% oxygen/5% carbon dioxide) Krebs solution of the following composition (mM): […], 1.2 NaH2P04, 1.2 MgS04, 2.5 CaCl2, and 11.4 glucose. The preparations were equilibrated for one hour before approximately one gram of passive tension was placed on the rings. Angiotensin II concentration-response curves were then recorded (3×10^−10 to 1×10^−5 M). […] The effectiveness of the test compound was expressed in terms of pA2 values and were calculated according to H. O. Schild [Br. J. Pharmacol. Chemother., 2,189-206 (1947)]. […] Each test antagonist was evaluated in aorta rings from two rabbits.

pressor response to AII = experiment: Assay C: In Vivo Intragastric Pressor Assay Response for AII Antagonists; conditions: rat, 3 mg/kg intragastric (i.g.); for Assay C Inhibition (%): inhibition of pressor response to 30 ng/kg AII bolus; for Assay C Duration: duration of inhibition of AII pressor response, measured up to 180 min
Method: Male Sprague-Dawley rats weighing 225-300 grams were anesthetized with methohexital (30 mg/kg, i.p.) and catheters were implanted into the femoral artery and vein. The catheters were tunneled subcutaneously to exit dorsally, posterior to the head and between the scapulae. The catheters were filled with heparin (1000 units/ml of saline). The rats were returned to their cage and allowed regular rat chow and water ad libitum. After full recovery from surgery (3-4 days), rats were placed in Lucite holders and the arterial line was connected to a pressure transducer. Arterial pressure was recorded on a Gould polygraph (mmHg). Angiotensin II was administered as a 30 ng/kg bolus via the venous catheter delivered in a 50 μl volume with a 0.2 ml saline flush. The pressor response in mm Hg was measured by the difference from pre-injection arterial pressure to the maximum pressure achieved. The AII injection was repeated every 10 minutes until three consecutive injections yielded responses within 4 mmHg of each other. These three responses were then averaged and represented the control response to AII. The test compound was suspended in 0.5% methylcellulose in water and was administered by gavage. The volume administered was 2 ml/kg body weight. The standard dose was 3 mg/kg. Angiotensin II bolus injections were given at 30, 45, 60, 75, 120, 150, and 180 minutes after gavage. The pressor response to AII was measured at each time point. The rats were then returned to their cage for future testing. A minimum of 3 days was allowed between tests. Percent inhibition was calculated for each time point following gavage by the following formula: [(Control Response—Response at time point)/Control Response] ×100.

Row | IC50 [1] | melting point | SMILES | Assay B pA2: type of antagonism (rabbit aortic rings) | Assay C Inhibition (%) (pressor response to AII) | Assay C Duration (pressor response to AII)
1 | 14 nM | 188 to 189 °C | CCCCc1cn(-c2ccccc2CC)c(=O)n1Cc1ccc(-c2ccccc2-c2nnn[nH]2)cc1 [Example 1, 1-(2-ethylphenyl)-4-butyl-1,3-dihydro-3-[2′-(1H-tetrazol-5-yl)[1,1′-biphenyl]-4-ylmethyl]-2H-imidazol-2-one] | NC | 20%/— | –
2 | 97 nM | 167 to 168 °C | CCCCc1cn(-c2ccccc2C(C)C)c(=O)n1Cc1ccc(-c2ccccc2-c2nnn[nH]2)cc1 [Example 2, 1-(2-isopropylphenyl)-4-butyl-1,3-dihydro-3-[2′-(1H -tetrazol-5-yl)[1,1′-biphenyl]-4-ylmethyl]-2H-imidazol-2-one] | NC | 70% | > 180 min
3 | 9.8 nM | 189 to 191 °C (dec.) | CCCCc1cn(-c2c(OC)cccc2OC)c(=O)n1Cc1ccc(-c2ccccc2-c2nnn[nH]2)cc1 [Example 3, 1-(2,6-dimethoxyphenyl)-4-butyl-1,3-dihydro-3-[2′-(1H -tetrazol-5-yl)[1,1′-biphenyl]-4-ylmethyl]-2H-imidazol-2-one] | – | 25% | > 180 min
4 | 13 nM | 163 to 164 °C | CCCCc1cn(-c2c(C)cccc2Cl)c(=O)n1Cc1ccc(-c2ccccc2-c2nnn[nH]2)cc1 [Example 4, 1-(2-chloro-6-methylphenyl) -4-butyl-1,3-dihydro-3-[2′-(1H-tetrazol-5-yl) [1,1′-biphenyl]-4-ylmethyl]-2H -imidazol-2-one] | – | 35% | > 180 min
5 | 6.3 nM | 177 to 178 °C (dec.) | CCCCc1cn(-c2c(C)cccc2C)c(=O)n1Cc1ccc(-c2ccccc2-c2nnn[nH]2)cc1 [Example 5, 1-(2,6-dimethylphenyl)-4-butyl-1,3-dihydro-3-[2′-(1H-tetrazol-5-yl)[1,1′-biphenyl]-4-ylmethyl]-2H -imidazol-2-one] | – | 40% | > 180 min
6 | 33 nM | 198 to 200 °C (dec.) | CCCCc1cn(-c2c(CC)cccc2CC)c(=O)n1Cc1ccc(-c2ccccc2-c2nnn[nH]2)cc1 [Example 6, 1-(2,6-diethylphenyl) -4-butyl-1,3-dihydro-3-[2′-(1H -tetrazol-5-yl) [1,1′-biphenyl]-4-ylmethyl]-2H-imidazol-2-one] | – | <20% | –
7 | 190 nM | 202 to 203 °C (dec.) | CCCCc1cn(-c2c(C(C)C)cccc2C(C)C)c(=O)n1Cc1ccc(-c2ccccc2-c2nnn[nH]2)cc1 [Example 7, 1-(2,6-diisopropylphenyl)-4-butyl-1,3-dihydro-3-[2′-(1H-tetrazol-5-yl)[1,1′-biphenyl]-4-ylmethyl]-2H -imidazol-2-one] | – | – | –
8 | 30 nM | 187 to 188 °C (dec.) | CCCCc1cn(-c2c(C)cc(C)cc2C)c(=O)n1Cc1ccc(-c2ccccc2-c2nnn[nH]2)cc1 [Example 8, 1-(2,4,6-trimethylphenyl)-4-butyl-1,3-dihydro-3-[2′-(1H-tetrazol-5-yl)[1,1′-biphenyl]-4-ylmethyl]-2H -imidazol-2-one] | – | 50% | > 180 min
9 | 270 nM | 134 to 135 °C | CCCCc1cn(-c2c(C)cc(C(C)(C)C)cc2C)c(=O)n1Cc1ccc(-c2ccccc2-c2nnn[nH]2)cc1 [Example 9, 1-(2,6-dimethyl-4-tertbutylphenyl) -4-butyl-1,3-dihydro-3-[2′-(1H-tetrazol-5-yl)[1,1′-biphenyl]-4-ylmethyl]-2H -imidazol-2-one] | – | – | –
